From US5475026A, “Agent for treating hepatic diseases” (Toray Industries, Inc., priority 1991, dated 1995)
Counter-ions that a name gives are not always drawn.

Assays:
[1] = hepatic disorder induced by D-galactosamine in SD rats (Example 2); format: in vivo, SD male rats; details: oral
Method: Using 7 week-old SD male rats, the effectiveness of beraprost by oral administration against the hepatic disorder induced by D-galactosamine was tested. As the test compound, the sodium salt of beraprost was used. The test compound was administered in a dose of 0.3 mg/kg per each time at one hour before and 6 hours after the administration of D-galactosamine. D-galactosamine was subcutaneously administered in a dose of 1 g/kg. Forty eight hours after the administration of D-galactosamine, the GOT and glutamic acid-pyruvic acid transaminase (hereinafter referred to as "GPT") levels in serum, and the content of triglyceride in the livers were measured.
As a control group, one group was treated in the same manner as described above except that sodium salt of beraprost was not administered.

[2] = increase in lipid peroxide level in the blood induced by carbon tetrachloride in SD rats (Example 3); format: in vivo, SD male rats; details: for Lipid Peroxides in serum / GPT level in serum / GOT level in serum: dose not given; for Lipid Peroxides in serum: control 7.10 ± 1.73, non-treated 3.40 ± 0.21; for GPT level in serum: control 3709 ± 406, non-treated 21 ± 2; for GOT level in serum: control 14689 ± 1577, non-treated 95 ± 5
Method: Using 7 week-old SD male rats, each group consisting of 6 rats, the effectiveness of beraprost by oral administration against the increase in the lipid peroxide level in the blood induced by carbon tetrachloride was tested. The sodium salt of beraprost was used as the test compound. 12.5% carbon tetrachloride solution in olive oil was intraperitoneally administered in a dose of 2 ml/kg to the rats which had been fasted for 24 hours. After the administration of the carbon tetrachloride solution, the rats were fasted for another 24 hours and then the levels of lipid peroxide, GOT and GPT in serum were measured. The test compound was administered one hour before (Test Group 1) or 6 hours after (Test Group 2) the administration of the carbon tetrachloride solution. As a control group, one group was treated in the same manner as described above except that the sodium salt of beraprost was not administered.

[3] = Acute Toxicity Test (Example 5); parameters: species or system rats; details: rat, in vivo, 14 days, parentheses: 95% reliable limit, Litchfield-Wilcoxon Method
Method: (§1) Acute toxicity test was carried out using rats.
(§2) *Litchfield-Wilcoxon Method (see J. Pharmacol. Expl. Therap. Vol. 96, p.
(§3) The numbers in parentheses indicate 95% reliable limit.

[4] = tested on: rats; experiment: Acute Toxicity Test (Example 5); details: rat, in vivo
Method: as §1, §2, §3

[5] = hepatic disorder induced by carbon tetrachloride in SD rats, serum GOT (Example 1); format: in vivo, Sprague-Dawley male rats; details: 0.3 mg/kg; for GOT level in serum: 24 h after
Method: Using 7 week-old Sprague-Dawley (hereinafter referred to as "SD") male rats, the effectiveness of beraprost against hepatic disorder induced by carbon tetrachloride was tested employing two administration routes, that is, oral and intraperitoneal administrations. Each group consisted of 6 rats. The test compound was the sodium salt of beraprost. The test compound was administered to the rats. which had been fasted for 24 hours, One hour after beraprost administration, 12.5% carbon tetrachloride solution in olive oil was administered in a dose of 2 ml/kg. The carbon tetrachloride solution was intraperitoneally administered to the rats to which the test compound was orally administered. The carbon tetrachloride solution was orally administered to the rats to which the test compound was intraperitoneally administered. After the administration of the carbon tetrachloride solution, the rats were fasted for 24 hours, and the glutamic acid-[…] transaminase (hereinafter referred to as "GOT") level in serum was measured. As a control group, one group was treated in the same manner as described above except that the sodium salt of beraprost was not administered. The results are shown in […]

[6] = disorder caused by liver ischemia-recirculation in SD rats (Example 4); format: in vivo, SD male rats; details: oral, 30 minutes before ischemia; for GPT level in serum: two hours after recirculation, control 624
Method: Using 8-10 week-old SD male rats, the effectiveness of beraprost by oral administration against the disorder caused by liver ischemia-recirculationwas tested. The sodium salt of beraprost was used as the test compound. The test compound was administered 30 minutes before the induction of liver ischemia. Liver ischemia was induced by ventrotomy under anesthesia and closing the hepatic artery in the outer left leaf and the portal vein with clips. One hour after the clipping, the clips were removed to reopen the vessels. Two hours after recirculation, the GPT level in serum was measured to evaluate the degree of disorder.
As a control group, one group was treated in the same manner as described above except that distilled water was administered in place of sodium salt of beraprost.

[7] = 0.3 mg/kg twice, vs control group
[8] = oral, one hour before or 6 hours after carbon tetrachloride
[9] = Test Group 1: oral, one hour before carbon tetrachloride, 24 h after
[10] = Test Group 2: oral, 6 hours after carbon tetrachloride, measured 24 h after carbon tetrachloride

CC#CCC(C)[C@H](O)/C=C/[C@@H]1[C@H]2c3cccc(CCCC(=O)O)c3O[C@H]2C[C@H]1O (relative stereo) [beraprost, (±)-(1R*,2R*, 3aS*,8bS*)-2,3,3a,8b-tetrahydro-2-hydroxy-1-[(E)-(3S*)-3-hydroxy-4methyl-1-ocetene-6-inyl]-1H-cyclopenta[b]benzofuran-5-butyric acid]
decrease in amount of triglycerides in the liver (in words) [1, 7]: significant decreases
decrease in serum GOT (in words) [1, 7]: significant decreases
decrease in serum GPT (in words) [1, 7]: significant decreases
decrease in GOT (in words) [2, 8]: significant decrease
decrease in GPT (in words) [2, 8]: significant decrease
decrease in lipid peroxide level in the blood (in words) [2, 8]: significant decrease
LD50 at 336 h ([3]; iv, female): 13 mg/kg
LD50 at 336 h ([3]; iv, male): 18 mg/kg
LD50 at 336 h ([3]; po, female): 12 mg/kg
LD50 at 336 h ([3]; po, male): 15 mg/kg
LD50 at 336 h ([3]; sc, subcutaneous, female): 7 mg/kg
LD50 at 336 h ([3]; sc, subcutaneous, male): 13 mg/kg
pathological symptoms [4]: slight to medium congestion in lung, slight to medium bleeding in stomach glands and slight small intestine catarrh
side effects [4]: side effects are observed only at very high dose

CC#CCC(C)[C@H](O)/C=C/[C@@H]1[C@H]2c3cccc(CCCC(=O)O)c3O[C@H]2C[C@H]1O (relative stereo) [sodium salt of beraprost]
GOT level in serum ([5]; intraperitoneal, one hour before carbon tetrachloride (oral), control 11943 ± 1216): 1889 ± 506 unit/l
decrease in GOT (in words) ([5]; oral and intraperitoneal, vs control): significant decrease in GOT was observed
GOT level in serum ([5]; oral, one hour before carbon tetrachloride (intraperitoneal), control 15647 ± 1588): 3820 ± 642 unit/l
Triglyceride content in the liver ([1]; 0.3 mg/kg one hour before and 6 hours after D-galactosamine, 48 h, control 42.4 ± 6.0, non-treated 14.1 ± 0.6): 12.4 ± 0.7 mg/g tissue
GPT level in serum ([1]; 0.3 mg/kg one hour before and 6 hours after D-galactosamine, 48 h, control 2552 ± 375, non-treated 79 ± 5): 1356 ± 187 unit/l
GOT level in serum ([1]; 0.3 mg/kg one hour before and 6 hours after D-galactosamine, 48 h, control 5641 ± 858, non-treated 154 ± 7): 3506 ± 377 unit/l
Lipid Peroxides in serum [2, 9]: 2.44 ± 0.34 µM
GPT level in serum [2, 9]: 1285 ± 344 unit/l
GOT level in serum [2, 9]: 4428 ± 1649 unit/l
Lipid Peroxides in serum [2, 10]: 2.82 ± 0.52 µM
GPT level in serum [2, 10]: 1713 ± 258 unit/l
GOT level in serum [2, 10]: 7672 ± 1834 unit/l
GPT level in serum ([6]; 0.03 mg/kg): 617 unit/l
GPT level in serum ([6]; 0.1 mg/kg): 540 unit/l
GPT level in serum ([6]; 0.3 mg/kg): 427 unit/l
decrease in GPT level in serum (in words) ([6]; 0.03-0.3 mg/kg): a decrease in GPT level in serum was observed
